What is called inhibition is the percentage by which the read-out fell short of the control. By EC50 is commonly meant the midpoint of the concentration-response curve.

In PMC4659708 (Nature, 2015) one finds inhibition and EC50 data, which are given here for 2 compounds.

For test [1], the target named is T1, α1 glycine receptor (GlyREM) (Danio rerio, UniProt O93430, DEL334-400/INS333AGT).
T1 sequence (O93430 with tags, fused parts or gaps INS333AGT/DEL334-400): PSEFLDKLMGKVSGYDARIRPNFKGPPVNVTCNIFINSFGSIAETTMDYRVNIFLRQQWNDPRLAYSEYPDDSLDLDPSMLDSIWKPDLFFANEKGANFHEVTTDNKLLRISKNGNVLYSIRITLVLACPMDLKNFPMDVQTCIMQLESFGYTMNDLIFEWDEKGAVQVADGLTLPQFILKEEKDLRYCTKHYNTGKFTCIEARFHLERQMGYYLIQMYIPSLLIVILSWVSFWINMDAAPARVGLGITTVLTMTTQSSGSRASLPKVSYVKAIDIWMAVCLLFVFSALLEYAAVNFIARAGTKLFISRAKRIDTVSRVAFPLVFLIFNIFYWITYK
As to the kind of experiment: TEVC in Xenopus oocytes, block of glycine current at […]. It is filed as cell-based. To be noted: read-out: % inhibition at 1 mM.

The target of test [2] is T1, α1 glycine receptor (GlyREM). Kind of test: TEVC in Xenopus oocytes, agonist activation. It is filed as cell-based.

In the case of `C=C(C)[C@@H]1[C@H]2OC(=O)[C@@H]1[C@]1(O)C[C@H]3O[C@]34C(=O)O[C@H]2[C@]14C` [ptx, picrotoxinin], in test [1], the inhibition at 1000 µM is approximately 80%.

As for `NCC(=O)O` [gly, glycine], a half-maximal effect in test [2] (EC50) was put at 260 µM.
